Activity calls are given as the source filed them. The calls are words filed in the database; no cut-off is given here.

One assay deals with Pseudomonas aeruginosa. Briefly: Antibacterial activity against gram-negative Pseudomonas aeruginosa at 5 mg/ml after 24 hrs by well diffusion method. It is filed as functional.
Settings: not given
(In general: Agar diffusion results depend on both activity and mobility in agar.)
Turning to `COc1ccc(-c2c[nH]c3c2c(=O)n(C)c(=O)n3C)cc1`, the “diameter of the inhibition zone (DIZ)” value is “inactive”.
Consider `Cn1c(=O)c2c(-c3ccc(Cl)cc3)c[nH]c2n(C)c1=O`, for which the “diameter of the inhibition zone (DIZ)” value was “inactive”.
Consider `Cn1c(=O)c2c(-c3ccc(O)cc3)c[nH]c2n(C)c1=O`, for which the “diameter of the inhibition zone (DIZ)” value is “inactive”.
For `Cn1c(=O)c2c(-c3ccccc3)c[nH]c2n(C)c1=O`, the “diameter of the inhibition zone (DIZ)” value was “inactive”.

Still in this assay, the particulars now being: read-out: DIZ.
In the case of `Cn1c(=O)c2c(-c3ccco3)c[nH]c2n(C)c1=O`, the zone of inhibition at 5000 µg/mL came to 18 mm.
Regarding `Cn1c(=O)c2c(-c3c[nH]c4ccccc34)c[nH]c2n(C)c1=O`, the zone of inhibition at 5000 µg/mL amounted to 20 mm.
For the compound `Cn1c(=O)c2c(-c3cccs3)c[nH]c2n(C)c1=O`, the zone of inhibition at 5000 µg/mL is 20 mm.
Consider `CN(C)c1ccc(-c2c[nH]c3c2c(=O)n(C)c(=O)n3C)cc1`, for which the zone of inhibition at 5000 µg/mL stood at 20 mm.
In the case of `Cc1ccc(-c2c[nH]c3c2c(=O)n(C)c(=O)n3C)cc1`, the zone of inhibition at 5000 µg/mL was determined as 20 mm.
As to `Cn1c(=O)c2c(-c3cccc4ccccc34)c[nH]c2n(C)c1=O`, the zone of inhibition at 5000 µg/mL is 20 mm.

A further assay deals with Bacillus mycoides. Briefly: Antibacterial activity against gram-positive Bacillus mycoides at 5 mg/ml after 24 hrs by well diffusion method.
Settings: not given
In kind it is functional.
On to `COc1ccc(-c2c[nH]c3c2c(=O)n(C)c(=O)n3C)cc1`, for which the “diameter of the inhibition zone (DIZ)” value was “inactive”.
Take `Cn1c(=O)c2c(-c3ccco3)c[nH]c2n(C)c1=O`: the “diameter of the inhibition zone (DIZ)” value was “inactive”.
As for `Cn1c(=O)c2c(-c3ccc(Cl)cc3)c[nH]c2n(C)c1=O`, the “diameter of the inhibition zone (DIZ)” value is “inactive”.
As to `Cn1c(=O)c2c(-c3c[nH]c4ccccc34)c[nH]c2n(C)c1=O`, the “diameter of the inhibition zone (DIZ)” value is “inactive”.
For the compound `Cn1c(=O)c2c(-c3ccc(O)cc3)c[nH]c2n(C)c1=O`, the “diameter of the inhibition zone (DIZ)” value is “inactive”.
For `Cn1c(=O)c2c(-c3ccccc3)c[nH]c2n(C)c1=O`, the “diameter of the inhibition zone (DIZ)” value is “inactive”.

Still in this assay, the particulars now being: read-out: DIZ.
Regarding `Cn1c(=O)c2c(-c3cccs3)c[nH]c2n(C)c1=O`, the zone of inhibition at 5000 µg/mL is 13 mm.
Regarding `CN(C)c1ccc(-c2c[nH]c3c2c(=O)n(C)c(=O)n3C)cc1`, the zone of inhibition at 5000 µg/mL is 12 mm.
`Cc1ccc(-c2c[nH]c3c2c(=O)n(C)c(=O)n3C)cc1`: the zone of inhibition at 5000 µg/mL was 12 mm.
For `Cn1c(=O)c2c(-c3cccc4ccccc34)c[nH]c2n(C)c1=O`, the zone of inhibition at 5000 µg/mL is 17 mm.

The next assay relates to Escherichia coli. Briefly: Antibacterial activity against gram-negative Escherichia coli at 5 mg/ml after 24 hrs by well diffusion method. It is filed as functional.
Settings: not given
`COc1ccc(-c2c[nH]c3c2c(=O)n(C)c(=O)n3C)cc1`: the “diameter of the inhibition zone (DIZ)” value was “inactive”.
With `Cn1c(=O)c2c(-c3ccc(Cl)cc3)c[nH]c2n(C)c1=O`, the “diameter of the inhibition zone (DIZ)” value was “inactive”.
`Cn1c(=O)c2c(-c3ccc(O)cc3)c[nH]c2n(C)c1=O`: the “diameter of the inhibition zone (DIZ)” value was “inactive”.
The same measure, in the same setting: with `Cn1c(=O)c2c(-c3ccccc3)c[nH]c2n(C)c1=O` the entry was “inactive”.

Still in this assay, the particulars now being: read-out: DIZ.
For `Cn1c(=O)c2c(-c3ccco3)c[nH]c2n(C)c1=O`, the zone of inhibition at 5000 µg/mL came to 12 mm.
On the same count and under the same terms, the figure for `Cn1c(=O)c2c(-c3c[nH]c4ccccc34)c[nH]c2n(C)c1=O` is 12 mm; for `Cn1c(=O)c2c(-c3cccs3)c[nH]c2n(C)c1=O` it is 13 mm; for `CN(C)c1ccc(-c2c[nH]c3c2c(=O)n(C)c(=O)n3C)cc1` it is 11 mm.
Same read-out and setting: with `Cc1ccc(-c2c[nH]c3c2c(=O)n(C)c(=O)n3C)cc1` the figure was 15 mm.
Turning to `Cn1c(=O)c2c(-c3cccc4ccccc34)c[nH]c2n(C)c1=O`, the zone of inhibition at 5000 µg/mL is 14 mm.

The subject of a further assay is Bacillus subtilis. The assay can be described thus: Antibacterial activity against gram-positive Bacillus subtilis at 5 mg/ml after 24 hrs by well diffusion method. In kind it is functional.
Settings: not given
With `COc1ccc(-c2c[nH]c3c2c(=O)n(C)c(=O)n3C)cc1`, the “diameter of the inhibition zone (DIZ)” value was “inactive”.
As for `Cn1c(=O)c2c(-c3ccc(Cl)cc3)c[nH]c2n(C)c1=O`, the “diameter of the inhibition zone (DIZ)” value was “inactive”.
Still for that read-out and setting: with `Cn1c(=O)c2c(-c3ccc(O)cc3)c[nH]c2n(C)c1=O` the entry was “inactive”.
With `Cn1c(=O)c2c(-c3ccccc3)c[nH]c2n(C)c1=O`, the “diameter of the inhibition zone (DIZ)” value was “inactive”.

The assay is the same for the next values; noted with them: read-out: DIZ.
Regarding `Cn1c(=O)c2c(-c3ccco3)c[nH]c2n(C)c1=O`, the zone of inhibition at 5000 µg/mL turned out to be 20 mm.
Turning to `Cn1c(=O)c2c(-c3c[nH]c4ccccc34)c[nH]c2n(C)c1=O`, the zone of inhibition at 5000 µg/mL was 20 mm.
`Cn1c(=O)c2c(-c3cccs3)c[nH]c2n(C)c1=O`: the zone of inhibition at 5000 µg/mL was found to be 20 mm.
Turning to `CN(C)c1ccc(-c2c[nH]c3c2c(=O)n(C)c(=O)n3C)cc1`, the zone of inhibition at 5000 µg/mL came out at 15 mm.
Turning to `Cc1ccc(-c2c[nH]c3c2c(=O)n(C)c(=O)n3C)cc1`, the zone of inhibition at 5000 µg/mL was 20 mm.
For the compound `Cn1c(=O)c2c(-c3cccc4ccccc34)c[nH]c2n(C)c1=O`, the zone of inhibition at 5000 µg/mL is 18 mm.

Values taken from ChEMBL document CHEMBL3751742, “A one pot, two-step synthesis of 5-arylpyrrolo[2,3-d]pyrimidines and screening of their preliminary antibacterial properties” (2016).
